Source: patent publication US9879023B2, “Therapeutic compounds” (Gilead Sciences, Inc., priority 2011, dated 2018)
Where two headings read alike, the source gives them in different places.

Test system: HIV-IIIb (MT-4 cells)
Assay: Test A: Antiviral Assays in MT4 Cells
Type: cell-based
Details: MT-4 cells infected with HIV-IIIb (0.004 m.o.i.), 5 days incubation, CellTiter-Glo readout, read-out: EC50
Description: Test A: Antiviral Assays in MT4 Cells
For the antiviral assay utilizing MT-4 cells, 0.4 μL of […] test concentration of 3-fold serially diluted compound in DMSO was added to 40 μL of cell growth medium (RPMI 1640, 10% FBS, 1% penicilline/Streptomycine, 1% L-Glutamine, 1% HEPES) in each well of 384-well assay plates (10 concentrations) in quadruplicate.
1 mL aliquots of 2×10e6 MT-4 cells are pre-infected for 1 and 3 hrs respectively, @37° C. with 25 uL (MT4) or of either cell growth medium (mock-infected) or a fresh 1:250 dilution of an HIV-IIIb concentrated ABI stock (0.004 m.o.i. for MT4 cells). Infected and uninfected cells are diluted in cell growth medium and 35 uL of 2000 (for MT4) cells is added to each well of the assay plates.
Assay plates were then incubated in a 37° C. incubator. After 5 days of incubation, 25 μl of 2× concentrated CellTiter-Glo™ Reagent (catalog # G7573, Promega Biosciences, Inc., Madison, Wis.) was added to each well of the assay plate. Cell lysis was carried out by incubating at room temperature for 2-3 min and then chemiluminescence was read using the Envision reader (PerkinElmer). […]

[1] = Human immunodeficiency virus 1, IIIB, MT4, 120 h

Compound | EC50 [1] [nM] | EC50 [nM]
Cc1cc2nc(C(C)C)sc2c(-c2ccc3c4c(ccnc24)CCO3)c1[C@H](OC(C)(C)C)C(=O)O (atropisomer, axis not shown) [Compound 88, (S)-2-tert-butoxy-2-((S)-7-(2,3-dihydropyrano[4,3,2-de]quinolin-7-yl)-2-isopropyl-5-methylbenzo[d]thiazol-6-yl)acetic acid] | 13.3 | –
Cc1cc2nc(N(C)C(C)C)sc2c(-c2ccc3c4c(ccnc24)CCO3)c1[C@H](OC(C)(C)C)C(=O)O (atropisomer, axis not shown) [Compound 46, (S)-2-tert-butoxy-2-((S)-7-(2,3-dihydropyrano[4,3,2-de]quinolin-7-yl)-2-(isopropyl(methyl)amino)-5-methylbenzo[d]thiazol-6-yl)acetic acid] | – | 16.8
Cc1cc2c(sc(=O)n2Cc2ccccc2C(F)(F)F)c(-c2ccc3c4c(ccnc24)CCO3)c1[C@H](OC(C)(C)C)C(=O)O (atropisomer, axis not shown) [Compound 71, (S)-2-tert-butoxy-2-((S)-7-(2,3-dihydropyrano[4,3,2-de]quinolin-7-yl)-5-methyl-2-oxo-3-(2-(trifluoromethyl)benzyl)-2,3-dihydrobenzo[d]thiazol-6-yl)acetic acid] | 984 | –
Cc1cc2c(sc(=O)n2Cc2ccc(C(F)(F)F)cc2)c(-c2ccc3c4c(ccnc24)CCO3)c1[C@H](OC(C)(C)C)C(=O)O (atropisomer, axis not shown) [Compound 74, (S)-2-tert-butoxy-2-((S)-7-(2,3-dihydropyrano[4,3,2-de]quinolin-7-yl)-5-methyl-2-oxo-3-(4-(trifluoromethyl)benzyl)-2,3-dihydrobenzo[d]thiazol-6-yl)acetic acid] | 650 | –
Cc1cc2nc(C3CC3)sc2c(-c2ccc(Cl)cc2)c1[C@H](OC(C)(C)C)C(=O)O [Compound 10] | 121 | –
Cc1cc2nc(C3CC3)sc2c(-c2ccc3c4c(cccc24)CCO3)c1[C@H](OC(C)(C)C)C(=O)O [Compound 85, (S)-2-tert-butoxy-2-((S)-2-cyclopropyl-7-(2,3-dihydrobenzo[de]chromen-7-yl)-5-methylbenzo[d]thiazol-6-yl)acetic acid] | 66.4 | –
Cc1cc2nc(C(=O)C3=CCC3)sc2c(-c2ccc(Cl)cc2)c1[C@H](OC(C)(C)C)C(=O)O [Compound 14b] | 480 | –
COc1nc2cc(C)c([C@H](OC(C)(C)C)C(=O)O)c(-c3ccc4c5c(ccnc35)CCO4)c2s1 (atropisomer, axis not shown) [Compound 66, (S)-2-tert-butoxy-2-((S)-7-(2,3-dihydropyrano[4,3,2-de]quinolin-7-yl)-2-methoxy-5-methylbenzo[d]thiazol-6-yl)acetic acid] | 22.5 | –
Cc1cc2ncsc2c(-c2ccc3c4c(ccnc24)CCO3)c1[C@H](OC(C)(C)C)C(=O)O (atropisomer, axis not shown) [Compound 95, (S)-2-tert-butoxy-2-((S)-7-(2,3-dihydropyrano[4,3,2-de]quinolin-7-yl)-5-methylbenzo[d]thiazol-6-yl)acetic acid] | 655 | –
Cc1cc2nc(C3CCC3)sc2c(-c2ccc3c4c(ccnc24)CCO3)c1[C@H](OC(C)(C)C)C(=O)O (atropisomer, axis not shown) [Compound 82, (S)-2-tert-butoxy-2-((S)-2-cyclobutyl-7-(2,3-dihydropyrano[4,3,2-de]quinolin-7-yl)-5-methylbenzo[d]thiazol-6-yl)acetic acid] | 40.2 | –
CNC(=O)c1nc2cc(C)c([C@H](OC(C)(C)C)C(=O)O)c(-c3ccc4c5c(ccnc35)CCO4)c2s1 (atropisomer, axis not shown) [Compound 97, (S)-2-tert-butoxy-2-((S)-7-(2,3-dihydropyrano[4,3,2-de]quinolin-7-yl)-5-methyl-2-(methylcarbamoyl)benzo[d]thiazol-6-yl)acetic acid] | 1240 | –
Cc1cc2nc(N(C)CC3OCCO3)sc2c(-c2ccc3c4c(ccnc24)CCO3)c1[C@H](OC(C)(C)C)C(=O)O (atropisomer, axis not shown) [Compound 59, (S)-2-((S)-2-(((1,3-dioxolan-2-yl)methyl)(methyl)amino)-7-(2,3-dihydropyrano[4,3,2-de]quinolin-7-yl)-5-methylbenzo[d]thiazol-6-yl)-2-tert-butoxyacetic acid] | – | 149
Cc1cc2nc(C(N)=O)sc2c(-c2ccc3c4c(ccnc24)CCO3)c1[C@H](OC(C)(C)C)C(=O)O [Compound 40, (S)-2-tert-butoxy-2-((S)-2-carbamoyl-7-(2,3-dihydropyrano[4,3,2-de]quinolin-7-yl)-5-methylbenzo[d]thiazol-6-yl)acetic acid] | 722 | –
Cc1cc2nc(C3CC3)sc2c(-c2ccc3c(c2Cl)NCCO3)c1[C@H](OC(C)(C)C)C(=O)O (atropisomer, axis not shown) [Compound 87, (S)-2-tert-butoxy-2-((R)-7-(5-chloro-3,4-dihydro-2H-benzo[b] [1,4]oxazin-6-yl)-2-cyclopropyl-5-methylbenzo[d]thiazol-6-yl)acetic acid] | – | 1570
Cc1cc2nc(OC(C)C)sc2c(-c2ccc3c4c(ccnc24)CCO3)c1[C@H](OC(C)(C)C)C(=O)O (atropisomer, axis not shown) [Compound 70, (S)-2-tert-butoxy-2-((S)-7-(2,3-dihydropyrano[4,3,2-de]quinolin-7-yl)-2-isopropoxy-5-methylbenzo[d]thiazol-6-yl)acetic acid] | 80.8 | –
Cc1cc2nc(C3=CCCC3)sc2c(-c2ccc3c4c(ccnc24)CCO3)c1[C@H](OC(C)(C)C)C(=O)O (atropisomer, axis not shown) [Compound 78, (S)-2-tert-butoxy-2-((S)-2-cyclopentenyl-7-(2,3-dihydropyrano[4,3,2-de]quinolin-7-yl)-5-methylbenzo[d]thiazol-6-yl)acetic acid] | – | 726
Cc1cc2nc(CC(C)C)sc2c(-c2ccc3c4c(ccnc24)CCO3)c1[C@H](OC(C)(C)C)C(=O)O (atropisomer, axis not shown) [Compound 83, (S)-2-tert-butoxy-2-((S)-7-(2,3-dihydropyrano[4,3,2-de]quinolin-7-yl)-2-isobutyl-5-methylbenzo[d]thiazol-6-yl)acetic acid] | – | 93.2
Cc1cc2c(sc(=O)n2Cc2cccc(C(F)(F)F)c2)c(-c2ccc3c4c(ccnc24)CCO3)c1[C@H](OC(C)(C)C)C(=O)O (atropisomer, axis not shown) [Compound 73, (S)-2-tert-butoxy-2-((S)-7-(2,3-dihydropyrano[4,3,2-de]quinolin-7-yl)-5-methyl-2-oxo-3-(3-(trifluoromethyl)benzyl)-2,3-dihydrobenzo[d]thiazol-6-yl)acetic acid] | 52.2 | –
Cc1cc2nc(N(C)C(C)C)sc2c(-c2ccc3c4c(ccnc24)CCO3)c1[C@H](OC(C)(C)C)C(=O)O (atropisomer, axis not shown) [Compound 47, (S)-2-tert-butoxy-2-((R)-7-(2,3-dihydropyrano[4,3,2-de]quinolin-7-yl)-2-(isopropyl(methyl)amino)-5-methylbenzo[d]thiazol-6-yl)acetic acid] | – | 26500
Cc1cc2nc(C(F)F)sc2c(-c2ccc3c4c(ccnc24)CCO3)c1[C@H](OC(C)(C)C)C(=O)O (atropisomer, axis not shown) [Compound 92, (S)-2-tert-butoxy-2-((S)-2-(difluoromethyl)-7-(2,3-dihydropyrano[4,3,2-de]quinolin-7-yl)-5-methylbenzo[d]thiazol-6-yl)acetic acid] | 353 | –
CCN(C)c1nc2cc(C)c([C@H](OC(C)(C)C)C(=O)O)c(-c3ccc4c5c(ccnc35)CCO4)c2s1 (atropisomer, axis not shown) [Compound 44, (S)-2-tert-butoxy-2-((S)-7-(2,3-dihydropyrano[4,3,2-de]quinolin-7-yl)-2-(ethyl(methyl)amino)-5-methylbenzo[d]thiazol-6-yl)acetic acid] | 18.7 | –
Cc1cc2nc(N(C)CCN(C)C)sc2c(-c2ccc3c4c(ccnc24)CCO3)c1[C@H](OC(C)(C)C)C(=O)O (atropisomer, axis not shown) [Compound 62, (S)-2-tert-butoxy-2-((R)-7-(2,3-dihydropyrano[4,3,2-de]quinolin-7-yl)-2-((2-(dimethylamino)ethyl)(methyl)amino)-5-methylbenzo[d]thiazol-6-yl)acetic acid] | – | 4880
Cc1cc2nc(C3CC3)sc2c(-c2ccc3c4c(ccnc24)CCO3)c1[C@H](OC(C)(C)C)C(=O)O [Compound 21, (S)-2-tert-butoxy-2-((S)-2-cyclopropyl-7-(2,3-dihydropyrano[4,3,2-de]quinolin-7-yl)-5-methylbenzo[d]thiazol-6-yl)acetic acid] | – | 14.9
Cc1cc2nc(N(C)CC3OCCO3)sc2c(-c2ccc3c4c(ccnc24)CCO3)c1[C@H](OC(C)(C)C)C(=O)O (atropisomer, axis not shown) [Compound 60, (S)-2-((R)-2-(((1,3-dioxolan-2-yl)methyl)(methyl)amino)-7-(2,3-dihydropyrano[4,3,2-de]quinolin-7-yl)-5-methylbenzo[d]thiazol-6-yl)-2-tert-butoxyacetic acid] | – | 34500
